{"source": "ChEMBL document CHEMBL1143849", "about": "“Two new dfr genes in trimethoprim-resistant integron-negative Escherichia coli isolates” (2007)", "key": {"Escherichia coli [1]": {"tested_on": "Escherichia coli", "test": "Antimicrobial activity against Escherichia coli U21 isolate by disk diffusion test"}, "Escherichia coli [2]": {"tested_on": "Escherichia coli", "test": "Antimicrobial activity against Escherichia coli U93 isolate by disk diffusion test"}}}
{"smiles": "COc1cc(Cc2cnc(N)nc2N)cc(OC)c1OC", "note": "[TRIMETHOPRIM]", "values": [{"measurement": "MIC", "setting": "Escherichia coli [1]", "value": "> 32", "unit": "µg/mL"}, {"measurement": "MIC", "setting": "Escherichia coli [2]", "value": "> 32", "unit": "µg/mL"}]}
